Measurements published in article PMC11322525, “Dihydrolipoamide dehydrogenase (DLD) is a novel molecular target of bortezomib” (Cell Death & Disease, 2024).

How the values were obtained:
[1] = biological target: T1, DLD (dihydrolipoamide dehydrogenase) (Homo sapiens, UniProt P09622); assay: microscale thermophoresis; assay type: binding; settings: unmodified bortezomib; His-tag RED-tris-NTA labelled protein; unit not given
T1 construct: recombinant, customized by DetaiBio; His-tag labelling (RED-tris-NTA) for MST implies His tag
T1 sequence (P09622 36-509): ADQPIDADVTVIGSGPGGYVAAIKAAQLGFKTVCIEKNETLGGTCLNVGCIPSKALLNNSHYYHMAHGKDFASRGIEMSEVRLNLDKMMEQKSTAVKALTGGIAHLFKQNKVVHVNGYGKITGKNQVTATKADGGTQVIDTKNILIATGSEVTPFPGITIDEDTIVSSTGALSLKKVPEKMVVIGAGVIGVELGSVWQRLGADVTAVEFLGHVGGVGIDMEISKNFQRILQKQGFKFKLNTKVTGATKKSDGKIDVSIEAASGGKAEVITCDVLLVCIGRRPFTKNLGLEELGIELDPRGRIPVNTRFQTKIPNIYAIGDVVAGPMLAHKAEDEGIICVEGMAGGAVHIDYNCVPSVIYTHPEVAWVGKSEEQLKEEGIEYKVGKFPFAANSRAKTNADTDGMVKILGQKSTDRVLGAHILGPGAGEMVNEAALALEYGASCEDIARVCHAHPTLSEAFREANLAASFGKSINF

[2] = biological target: T2, PSMB5 (Homo sapiens, UniProt P28074); assay: microscale thermophoresis; assay type: binding; settings: unmodified bortezomib; positive control (protein of the control panel not named in the legend); isolated recombinant subunit
T2 construct: recombinant isolated subunit, customized by DetaiBio; His-tag labelling for MST implies His tag
T2 sequence (P28074 60-263): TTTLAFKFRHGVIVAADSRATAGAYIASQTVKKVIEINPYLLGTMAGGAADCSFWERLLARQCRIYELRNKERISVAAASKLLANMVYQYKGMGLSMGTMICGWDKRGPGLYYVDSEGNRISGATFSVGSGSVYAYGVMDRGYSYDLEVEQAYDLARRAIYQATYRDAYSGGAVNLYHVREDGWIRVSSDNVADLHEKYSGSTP

## CC(C)C[C@H](NC(=O)[C@H](Cc1ccccc1)NC(=O)c1cnccn1)B(O)O [bortezomib]
[1]
  KD: 1.38 ± 0.51 E-7
[2]
  KD: binding affinity of BTZ to DLD and to PSMB5
